Source: US11149031B2, “Substituted N-(3-fluoropropyl)-pyrrolidine compounds, processes for their preparation and therapeutic uses thereof” (SANOFI, priority 2016, dated 2021)
Where two headings read alike, the source gives them in different places.

Tests used:
[1] = test system: MCF7 cells expressing mutant estrogen receptor Asp 538 Gly; assay: Test B: cell proliferation/viability assay (CellTiter-Glo) on MCF7 Asp 538 Gly mutant; assay type: cell-based; settings: Homo sapiens, MCF7, 168 h, MCF7 cells expressing ER Asp 538 Gly mutant, 7 days of compound exposure, read-out: proliferation MCF7 D538G IC50
Description: (§1) Test B: Cell Proliferation/Viability Assay on MCF7 (Breast Tumor Cells) WT and Mutants Cell Lines
(§2) Test B involves measuring the in vitro proliferation activity of the compounds of the invention by analyzing the viability of the tumor cells.
(§3) The measurements of the viability were made using a breast cancer cell viability assay as described hereunder.
(§4) MCF7 cells expressing (and dependent) on mutants estrogen receptor Tyr 537 Ser or Asp 538 Gly were generated by transfection of MCF7 parental cells (ATCC) with expression vectors coding for different mutants of estrogen receptor Tyr 537 Ser or Asp 538 Gly. The cells were first selected by antibiotic (related to vector expression) and then selected for their growth dependence on estrogen receptor based on their ability to grow in vitro in absence of estradiol (parental cell line die in absence of estradiol).
(§5) MCF7 cells (ATCC) or MCF7 cells expressing (and dependent) on mutants estrogen receptor Tyr 537 Ser or Asp 538 Gly were seeded in 384 wells microplate at concentration of >999 cells/30 μL per well in red phenol free MEM medium containing 5% charcoal dextran striped FBS. The following day, 9 points serial 1:5 dilution of each compound were added to the cells in 20 μL at final concentrations ranging from 3-0.000001 μM. After 7 days of compound exposure, 50 μL of CellTiter-Glo (promega) was added to the cells and relative luminescence arbitrary units (RLUs) were determined in luminescence plate reader (Envision device). CellTiter-Glo was added to 50 μL medium without cells to determine the background signal.
(§6) The percent of viability of each sample was determined as follows: (RLU sample−RLU background/RLU untreated−RLU background)*100=% viability.

ERα in MCF7 cells = ERα in MCF7 cells (Homo sapiens (Human), UniProt P03372); assay: Test C: estrogen receptor degradation activity, ERα in cell western assay in MCF7 cells; assay type: cell-based; settings: for DC50: 4 hours post compound addition, ERα in cell western, read-out: Degradation IC50; for % Degradation at 3 μM: 4 hours, relative to fulvestrant
Chain of ERα in MCF7 cells (P03372 whole entry): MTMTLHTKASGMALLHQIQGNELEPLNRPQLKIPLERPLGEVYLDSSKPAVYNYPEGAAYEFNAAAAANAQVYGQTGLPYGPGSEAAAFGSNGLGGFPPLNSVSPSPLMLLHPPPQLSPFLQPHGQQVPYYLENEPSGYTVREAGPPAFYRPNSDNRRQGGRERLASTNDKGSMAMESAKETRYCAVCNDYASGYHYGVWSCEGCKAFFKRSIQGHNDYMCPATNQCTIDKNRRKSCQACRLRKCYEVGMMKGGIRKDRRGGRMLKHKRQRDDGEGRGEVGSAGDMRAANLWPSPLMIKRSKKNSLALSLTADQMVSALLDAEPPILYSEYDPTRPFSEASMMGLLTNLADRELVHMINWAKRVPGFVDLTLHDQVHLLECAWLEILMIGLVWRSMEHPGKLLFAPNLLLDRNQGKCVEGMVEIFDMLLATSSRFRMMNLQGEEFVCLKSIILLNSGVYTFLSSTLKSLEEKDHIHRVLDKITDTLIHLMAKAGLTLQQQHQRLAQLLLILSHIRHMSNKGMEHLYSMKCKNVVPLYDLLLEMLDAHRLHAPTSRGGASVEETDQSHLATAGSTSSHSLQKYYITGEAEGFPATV
Outline: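 ERα level is read as integrated green fluorescence, with DNA taken from red Syto-64 signal, after MCF7 cells are exposed to compound for 4 hours. Cells grow in hormone-depleted medium (5% charcoal-dextran stripped FBS, no phenol red); fulvestrant at 0.1 μM is the positive control.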

[2] = biological target: His6-ERα298-554 Y537S mutant (ERα ligand-binding domain) (Homo sapiens (Human), UniProt P03372, Y537S); assay: Test A: biochemical antagonist activity, LanthaScreen TR-FRET ERα coactivator assay, Y537S mutant; settings: read-out: Antagonism Y537S IC50
Chain of His6-ERα298-554 Y537S mutant (ERα ligand-binding domain) (P03372 298-554 Y537S): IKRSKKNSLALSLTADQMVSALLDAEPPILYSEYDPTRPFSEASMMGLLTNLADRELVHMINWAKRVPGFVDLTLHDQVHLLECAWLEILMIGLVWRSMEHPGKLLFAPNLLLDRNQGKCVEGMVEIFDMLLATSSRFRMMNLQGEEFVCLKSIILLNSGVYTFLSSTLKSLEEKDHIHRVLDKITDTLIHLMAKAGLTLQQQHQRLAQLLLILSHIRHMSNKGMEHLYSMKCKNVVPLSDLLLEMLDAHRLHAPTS
Outline: (§7)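 His6-ERα LBD (0.5 nM) with 0.5 nM Tb-anti-His6 antibody, 250 nM PGC1a peptide and 3 nM (or 10 nM) estradiol in 100 mM potassium phosphate pH 7.4 with 5 mM DTT, incubated overnight at room temperature with compound.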

[3] = test system: MCF7 cells expressing mutant estrogen receptor Tyr 537 Ser; assay: Test B: cell proliferation/viability assay (CellTiter-Glo) on MCF7 Tyr 537 Ser mutant; assay type: cell-based; settings: Homo sapiens, MCF7, 168 h, MCF7 cells expressing ER Tyr 537 Ser mutant, 7 days of compound exposure, read-out: proliferation MCF7 Y537S IC50
Description: as §1, §2, §3, §4, §5, §6

[4] = test system: MCF7 cells (breast tumor cells) WT; assay: Test B: cell proliferation/viability assay (CellTiter-Glo) on MCF7 WT; assay type: cell-based; settings: Homo sapiens, MCF7, 168 h, 7 days of compound exposure
Experimental: as §1, §2
The measurements of the viability were made using a breast cancer cell viability assay as described hereunder. […]
as §5, §6

[5] = biological target: His6-ERα298-554 D538G mutant (ERα ligand-binding domain) (Homo sapiens (Human), UniProt P03372, D538G); assay: Test A: biochemical antagonist activity, LanthaScreen TR-FRET ERα coactivator assay, D538G mutant; settings: read-out: Antagonism D538G IC50
Chain of His6-ERα298-554 D538G mutant (ERα ligand-binding domain) (P03372 298-554 D538G): as the sequence (P03372 298-554 Y537S) above, with S240Y, D241G counted along it
Outline: as §7

[6] = biological target: His6-ERα298-554 WT (ERα ligand-binding domain) (Homo sapiens (Human), UniProt P03372); assay: Test A: biochemical antagonist activity, LanthaScreen TR-FRET ERα coactivator assay, WT; settings: read-out: Antagonism WT IC50
Chain of His6-ERα298-554 WT (ERα ligand-binding domain) (P03372 298-554): as the sequence (P03372 298-554 Y537S) above, with S240Y counted along it
Outline: as §7

[7] = asterisk (*): protocol using 10 nM estradiol

Row | Compound | IC50 [1] | DC50 (ERα in MCF7 cells) | % Degradation at 3 μM (ERα in MCF7 cells) | IC50 ([2]; protocol with 3 nM estradiol) | IC50 [3] | IC50 [4] | IC50 ([5]; protocol with 3 nM estradiol) | IC50 ([6]; protocol with 3 nM estradiol) | IC50 [2, 7] | IC50 [5, 7] | IC50 [6, 7]
1 | Oc1ccc2c(c1)SCCC(c1ccc3occc3c1)=C2c1ccc(O[C@H]2CCN(CCCF)C2)cc1 [Example 184, 4-(benzofuran-5-yl)-5-[4-[(3S)-1-(3-fluoropropyl)pyrrolidin-3-yl]oxyphenyl]-2,3-dihydro-1-benzothiepin-8-ol] | 0.7 nM | 0.7 nM | 87% | 4 nM | 4 nM | 0.3 nM | 6 nM | 1 nM |  |  | 
2 | CC1(C)Cc2cc(C3=C(c4ccc(O[C@H]5CCN(CCCF)C5)nc4)c4ccc(O)cc4CCC3)ccc2N1 [Example 242, 6-(2,2-dimethylindolin-5-yl)-5-[6-[(3S)-1-(3-fluoropropyl)pyrrolidin-3-yl]oxy-3-pyridyl]-8,9-dihydro-7H-benzo[7]annulen-2-ol] | 2 nM | 0.8 nM | 83% |  | 11 nM | 0.7 nM |  |  | 7 nM | 9 nM | 1 nM
3 | CCOc1ccc(C2=C(c3ccc(O[C@H]4CCN(CCCF)C4)cc3)c3ccc(O)cc3SC2)c(F)c1Cl [Example 63, 3-(3-chloro-4-ethoxy-2-fluoro-phenyl)-4-[4-[(3S)-1-(3-fluoropropyl)pyrrolidin-3-yl]oxyphenyl]-2H-thiochromen-7-ol] | 5 nM | 0.3 nM | 86% |  | > 999 nM | 5 nM |  |  | 2450 nM | > 4000 nM | 318 nM
4 | Oc1ccc2c(c1)SCC(c1ccc(OC3COC3)cc1)=C2c1ccc(O[C@H]2CCN(CCCF)C2)cc1 [Example 44, 4-[4-[(3S)-1-(3-fluoropropyl)pyrrolidin-3-yl]oxyphenyl]-3-[4-(oxetan-3-yloxy)phenyl]-2H-thiochromen-7-ol] | > 999 nM | 8 nM | 89% |  | > 999 nM | > 999 nM |  |  | 1820 nM | 2930 nM | 172 nM
5 | COc1ccc(C2=C(c3ccc(O[C@H]4CCN(CCCF)C4)cc3)c3ccc(O)cc3OCC2)c(F)c1 [Example 121, 4-(2-fluoro-4-methoxy-phenyl)-5-[4-[(3S)-1-(3-fluoropropyl)pyrrolidin-3-yl]oxyphenyl]-2,3-dihydro-1-benzoxepin-8-ol] | 1 nM | 0.2 nM | 90% | 13 nM | 3 nM | 0.3 nM | 27 nM | 2 nM |  |  | 
6 | Cc1ccc(C2=C(c3ccc(O[C@H]4CCN(CCCF)C4)cc3)c3cc(Cl)c(O)cc3OCC2)c(F)c1 [Example 145, 7-chloro-4-(2-fluoro-4-methyl-phenyl)-5-[4-[(3S)-1-(3-fluoropropyl)pyrrolidin-3-yl]oxyphenyl]-2,3-dihydro-1-benzoxepin-8-ol] | 17 nM | 0.5 nM | 82% | 3270 nM | 124 nM | 9 nM | 4000 nM | 256 nM |  |  | 
7 | Oc1ccc2c(c1)CCC(c1ccc(OC(F)(F)F)cc1)=C2c1ccc(O[C@H]2CCN(CCCF)C2)cc1 [Example 12, 5-[4-[(3S)-1-(3-fluoropropyl)pyrrolidin-3-yl]oxyphenyl]-6-[4-(trifluoromethoxy)phenyl]-7,8-dihydronaphthalen-2-ol] | 5 nM |  |  |  | 9 nM | 1 nM |  |  |  |  | 
8 | Oc1ccc2c(c1)CCC(c1ccc(Cl)cc1Cl)=C2c1ccc(O[C@H]2CCN(CCCF)C2)cc1 [Example 14, 6-(2,4-dichlorophenyl)-5-[4-[(3S)-1-(3-fluoropropyl)pyrrolidin-3-yl]oxyphenyl]-7,8-dihydronaphthalen-2-ol] | 1 nM |  |  |  | 6 nM | 0.5 nM |  |  |  |  | 
9 | Cc1ccc(C2=C(c3ccc(O[C@H]4CCN(CCCF)C4)cc3)c3ccc(O)cc3SC2)c(Cl)c1 [Example 58, 3-(2-chloro-4-methyl-phenyl)-4-[4-[(3S)-1-(3-fluoropropyl)pyrrolidin-3-yl]oxyphenyl]-2H-thiochromen-7-ol] | 0.8 nM |  |  |  | 5 nM | 2 nM |  |  |  |  | 
10 | Cc1nc(C)c(C2=C(c3ccc(O[C@H]4CCN(CCCF)C4)cc3)c3ccc(O)cc3SC2)s1 [Example 68, 3-(2,4-dimethylthiazol-5-yl)-4-[4-[(3S)-1-(3-fluoropropyl)pyrrolidin-3-yl]oxyphenyl]-2H-thiochromen-7-ol] | 7 nM |  |  |  | 125 nM | 14 nM |  |  |  |  | 
11 | CC(C)Oc1ccc(C2=C(c3ccc(O[C@H]4CCN(CCCF)C4)cc3)c3ccc(O)cc3OCC2)c(C(F)(F)F)c1.Cl [Example 150, 5-[4-[(3S)-1-(3-fluoropropyl)pyrrolidin-3-yl]oxyphenyl]-4-[4-isopropoxy-2-(trifluoromethyl)phenyl]-2,3-dihydro-1-benzoxepin-8-ol hydrochloride] | 2 nM | 4 nM | 82% |  | 14 nM | 0.4 nM |  |  |  |  | 
12 | O=C(O)c1ccc2c(c1)SCCC(c1ccc(Cl)cc1Cl)=C2c1ccc(O[C@H]2CCN(CCCF)C2)cc1 [Example 203, 4-(2,4-dichlorophenyl)-5-[4-[(3S)-1-(3-fluoropropyl)pyrrolidin-3-yl]oxyphenyl]-2,3-dihydro-1-benzothiepine-8-carboxylic acid] | 1 nM | 0.6 nM | 93% |  | 13 nM | 0.8 nM |  |  |  |  | 
13 | Oc1ccc2c(c1)SCCC(c1ccc(Cl)cc1Cl)=C2c1ccc(O[C@H]2CCN(CCCF)C2)nc1 [Example 205, 4-(2,4-dichlorophenyl)-5-[6-[(3S)-1-(3-fluoropropyl)pyrrolidin-3-yl]oxy-3-pyridyl]-2,3-dihydro-1-benzothiepin-8-ol] | 0.2 nM | 0.4 nM | 84% |  | 3 nM | 0.2 nM |  |  |  |  | 
14 | Oc1ccc(C2=C(c3ccc(O[C@H]4CCN(CCCF)C4)cc3)c3ccc(O)cc3CC2)cc1 [Example 15, 5-[4-[(3S)-1-(3-fluoropropyl)pyrrolidin-3-yl]oxyphenyl]-6-(4-hydroxyphenyl)-7,8-dihydronaphthalen-2-ol] | 25 nM |  |  |  | 30 nM | 0.2 nM |  |  |  |  | 
15 | Oc1ccc2c(c1)CCCC(c1ccc(Cl)c(F)c1)=C2c1ncc(O[C@H]2CCN(CCCF)C2)cn1 [Example 254, 6-(4-chloro-3-fluoro-phenyl)-5-[5-[(3S)-1-(3-fluoropropyl)pyrrolidin-3-yl]oxypyrimidin-2-yl]-8,9-dihydro-7H-benzo[7]annulen-2-ol] | 17 nM |  |  |  | 129 nM | 16 nM |  |  |  |  | 
16 | Oc1ccc2c(c1)SCCC(c1ccc(Cl)cc1Cl)=C2c1ccc(O[C@H]2CCN(CCCF)C2)cc1 [Example 166, 4-(2,4-dichlorophenyl)-5-[4-[(3S)-1-(3-fluoropropyl)pyrrolidin-3-yl]oxyphenyl]-2,3-dihydro-1-benzothiepin-8-ol] | 1 nM | 2 nM | 90% |  | 8 nM | 0.2 nM |  |  |  |  | 
17 | Oc1ccc2c(c1)CCC(c1ccc(F)cc1Cl)=C2c1ccc(O[C@H]2CCN(CCCF)C2)cc1 [Example 13, 6-(2-chloro-4-fluoro-phenyl)-5-[4-[(3S)-1-(3-fluoropropyl)pyrrolidin-3-yl]oxyphenyl]-7,8-dihydronaphthalen-2-ol] | 3 nM |  |  |  | 8 nM | 0.4 nM |  |  |  |  | 
